From patent publication US20090221607A1, “Piperazine Derivatives” (M's Science Corporation, priority 2006, published 2009)
Structures can show the parent of a compound that is named as a salt.

Target: T1, σ1 receptors (Homo sapiens, UniProt Q99720)
T1 construct: endogenous in cells; host or cells: HEK-293 cell membranes
Assay: σ1 receptor binding assay ((+)-[3H]pentazocine displacement, HEK-293 cell membranes)
Settings: 10 nM (+)-[3H]-pentazocine, 120 min at 37° C.
Experimental: Sigma-1 (σ1) and sigma-2 (σ2) receptor binding assays are carried out in membranes from HEK-293 (Human Embryonic Kidney) cells.
Confluent HEK-293 cells are harvested in PBS/5 mM EDTA. They are centrifuged at 2000 rpm for 5 min and then washed two times in PBS. Cells are homogenized in 20 mM Tris-HCL (pH=7.5) containing 5 mM EDTA, 0.5 mM PMSF and 0.5 μg/mL leupeptin using a Dounce homogenizer and sonicated for 5 minutes.
Nuclear debris and intact cells are removed by centrifugation at 3000 rpm for 10 minutes at 4° C. The supernatant is centrifuged at 12000 rpm for 30 minutes and the resulting pellet is resuspended in 25 mM Tris-HCL (pH=7.5), 25 mM Mg2Cl, 10% sucrose containing 0.5 mM PMSF, 2 mM AEBSF, 1 mM EDTA, 130 μM bestatin, 14 μM E-64, 1 μM leupeptin and […] aprotinin.
Proteins are determined using the Bio Rad Protein Assay Dye Reagent and the membranes are aliquoted and frozen at −80° C. […]
Total binding is determined by incubating 50 μg of HEK-293 cell membranes with 10 nM (+)-[^3H]-pentazocine (Perkin-Elmer, 35 Ci/mmol) and assay buffer (50 mM Tris-HCl, pH=8.3) in a total volume of 200 μl. Non specific binding is determined in the presence of 10 μM unlabeled pentazocine. […] The filters are washed three times and the membrane-bound radioactivity is determined in a Microbeta scintillation counter. […]
Specific binding is determined by subtraction of non specific binding from total binding. […]

T1 sequence (Q99720 whole entry): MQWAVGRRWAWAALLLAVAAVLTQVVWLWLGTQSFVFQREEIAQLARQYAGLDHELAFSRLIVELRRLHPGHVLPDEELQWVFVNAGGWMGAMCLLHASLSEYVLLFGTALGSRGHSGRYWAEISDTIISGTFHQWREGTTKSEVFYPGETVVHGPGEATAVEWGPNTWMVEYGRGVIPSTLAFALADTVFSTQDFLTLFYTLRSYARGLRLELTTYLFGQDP

SMILES	IC50 [nM]
Fc1ccc(OCCN2CCN(CCOc3ccc(F)cc3)CC2)cc1 [1,4-bis-[2-(4-fluorophenoxy)ethyl]piperazine]	< 700
Fc1ccccc1OCCN1CCN(CCOc2ccccc2F)CC1 [Example 1, 1,4-Bis-[2-(2-fluorophenoxy)ethyl]piperazine dihydrochloride]	< 700
